Reference: patent US20220386613A1, “WEED CONTROL METHOD AND MIXED AGROCHEMICAL COMPOSITION FOR SOIL TREATMENT” (KUMIAI CHEMICAL INDUSTRY CO., LTD., priority 2019, published 2022)

Experiments:
Assay type in all cases: in vivo
[1] = tested on: barnyard grass (Echinochloa crus-galli); experiment: Herbicidal effect evaluation test on weeds by soil treatment (barnyard grass); conditions: Day 18 after treatment (4.2 L)
Experimental: (§1) In a greenhouse having an average temperature of 25° C. (highest: 30° C., lowest: 25° C.), field soil (sandy loam) was filled in a plastic pot of 11 cm in length, width and depth, and twenty seeds of each of barnyard grass (Echinochloa crus-galli) and redroot amaranth (Amaranthus retroflexus) were sowed and covered with the same soil at a thickness of 1 cm. […] On the day of this chemical treatment, a total of 2-mm rainfall was artificially applied in 30 minutes using an artificial rain maker. Thereafter, barnyard grass and redroot amaranth were grown and, on Day 18 after the treatment, the growth conditions of barnyard grass and redroot amaranth were observed and examined. The rates of reduction in the plant height and the number of leaves relative to an untreated area were each calculated, and the herbicidal effect was determined as a value obtained by adding the thus calculated rates of reduction and dividing this value by 2 for evaluation of the degree of the herbicidal effect. For example, the herbicidal effect is 90% when the plant height was decreased by 90% and the number of leaves was reduced from 10 to 1, while the herbicidal effect is 75% when the plant height was decreased by 70% and the number of leaves was reduced from 5 to 1. It is noted here that, in Table 1, each value of the herbicidal effect represents an average value of two herbicidal effect evaluation tests.

[2] = tested on: redroot amaranth (Amaranthus retroflexus); experiment: Herbicidal effect evaluation test on weeds by soil treatment (redroot amaranth); conditions: Day 18 after treatment (4 L)
Experimental: as §1

soybean (Glycine max) = experiment: Evaluation test of crop injury to soybean by soil treatment; conditions: 15-mm rainfall
Experimental: In a greenhouse having an average temperature of 25° C. (highest: 30° C., lowest: 25° C.), field soil (sandy loam) was filled in a plastic pot of 11 cm in length, width and depth, and a single seed of soybean (Glycine max) was sowed and covered with the same soil at a thickness of 2 cm. […] On the day of this chemical treatment, a total of 15-mm rainfall was artificially applied in 30 minutes using an artificial rain maker. Thereafter, the soybean was grown and, on Day 15 and Day 39 after the treatment or on Day 13 and Day 26 after the treatment, the growth conditions of the soybean were observed and examined in terms of the plant height and the number of leaves. The rates of reduction in the plant height and the number of leaves relative to an untreated area were each determined, and the thus determined rates of reduction were added and then divided by 2 to calculate the growth inhibition rate for evaluation of the degree of crop injury. […] It is noted here that, in Tables 2 to 5, each growth inhibition rate represents an average value of two crop injury evaluation tests. […] The values observed in the test each indicated an effect lower than the expected value calculated by the following Colby formula at a preferable dosage (see S. R. Colby, Weeds 15(1967), pp. 20-22). Colby's formula defines the expected value (E) as follows for the use of a combination of two chemical agents: (E)=X+Y−XY/100 wherein X represents the growth inhibition rate of an agent a at a concentration of x, and Y represents the growth inhibition rate of an agent b at a concentration of y.

[3] = active component 70 g/ha (flumioxazin)
[4] = active component 140 g/ha (flumioxazin)
[5] = active component 25 g/ha (saflufenacil)
[6] = active component 50 g/ha (saflufenacil)
[7] = active component 160 g/ha (sulfentrazone)
[8] = active component 320 g/ha (sulfentrazone)

C#CCN1C(=O)COc2cc(F)c(N3C(=O)C4=C(CCCC4)C3=O)cc21 [Flumioxazin, flumioxazin]
Herbicidal effect, barnyard grass [1, 3]: 100%
Herbicidal effect, barnyard grass [1, 4]: 100%
Herbicidal effect, redroot amaranth [2, 3]: 100%
Herbicidal effect, redroot amaranth [2, 4]: 100%
Soybean growth inhibition rate (soybean (Glycine max); Table 2, 70 g/ha (flumioxazin), Day 15 after treatment): 15%
Soybean growth inhibition rate (soybean (Glycine max); Table 2, 70 g/ha (flumioxazin), Day 39 after treatment): 5%
Soybean growth inhibition rate (soybean (Glycine max); Table 3, 140 g/ha (flumioxazin), Day 15 after treatment): 25%
Soybean growth inhibition rate (soybean (Glycine max); Table 3, 140 g/ha (flumioxazin), Day 39 after treatment): 10%
Soybean growth inhibition rate (soybean (Glycine max); Table 4, 70 g/ha (flumioxazin), Day 13 after treatment): 8%
Soybean growth inhibition rate (soybean (Glycine max); Table 4, 70 g/ha (flumioxazin), Day 26 after treatment): 10%

CC(C)N(C)S(=O)(=O)NC(=O)c1cc(-n2c(=O)cc(C(F)(F)F)n(C)c2=O)c(F)cc1Cl [Saflufenacil, saflufenacil]
Herbicidal effect, barnyard grass [1, 5]: 15%
Herbicidal effect, barnyard grass [1, 6]: 65%
Herbicidal effect, redroot amaranth [2, 5]: 100%
Herbicidal effect, redroot amaranth [2, 6]: 100%
Soybean growth inhibition rate (soybean (Glycine max); Table 4, 25 g/ha (saflufenacil), Day 13 after treatment): 20%
Soybean growth inhibition rate (soybean (Glycine max); Table 4, 25 g/ha (saflufenacil), Day 26 after treatment): 30%
Soybean growth inhibition rate (soybean (Glycine max); Table 5, 50 g/ha (saflufenacil), Day 13 after treatment): 30%
Soybean growth inhibition rate (soybean (Glycine max); Table 5, 50 g/ha (saflufenacil), Day 26 after treatment): 30%

Cc1nn(-c2cc(NS(C)(=O)=O)c(Cl)cc2Cl)c(=O)n1C(F)F [Sulfentrazone, sulfentrazone]
Herbicidal effect, barnyard grass [1, 7]: 100%
Herbicidal effect, barnyard grass [1, 8]: 100%
Herbicidal effect, redroot amaranth [2, 7]: 100%
Herbicidal effect, redroot amaranth [2, 8]: 100%
